Laboratory results taken from US5919784A, “Heterocyclic aminomethyl compounds” (Adir Et Compagnie, priority 1996, dated 1999).
Structures can show the parent of a compound that is named as a salt.

What was measured:
human D4.4 receptor = biological target: T1, human D4.4 receptor (Homo sapiens, UniProt P21917); test: Antagonism at human D4.4 receptors, [35S]GTPγS binding (G protein activation) stimulated by dopamine; format: biochemical; conditions: antagonism of dopamine-stimulated [35S]GTPγS binding; antagonist preincubated with fixed concentration of dopamine 30 min; CHO membranes; read-out: Kb (antagonist potency constant)
T1 construct: purchased Receptor Biology Inc. (Md., USA); host or cells: CHO cells (transfected), membranes
T1 sequence (P21917 1-419): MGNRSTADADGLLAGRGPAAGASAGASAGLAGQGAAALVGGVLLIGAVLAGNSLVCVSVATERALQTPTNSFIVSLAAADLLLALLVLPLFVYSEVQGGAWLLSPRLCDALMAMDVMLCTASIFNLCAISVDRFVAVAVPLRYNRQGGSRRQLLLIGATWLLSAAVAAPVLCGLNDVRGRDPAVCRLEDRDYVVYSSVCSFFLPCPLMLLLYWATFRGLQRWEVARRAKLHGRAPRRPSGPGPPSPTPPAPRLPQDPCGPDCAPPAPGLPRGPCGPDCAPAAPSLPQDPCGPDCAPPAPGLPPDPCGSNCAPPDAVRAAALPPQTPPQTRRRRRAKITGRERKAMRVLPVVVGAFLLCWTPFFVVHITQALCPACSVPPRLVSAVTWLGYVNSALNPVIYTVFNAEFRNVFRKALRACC
Procedure: The efficacy was determined by measuring the activation of G proteins by stimulating the binding of [^35 S]GTPγS (NEN, Les Ulis, France). The membranes prepared from CHO cells transfected with the human D4.4 receptor were purchased from Receptor Biology Inc. (Md., USA). The membranes (50 μg of membrane protein) are incubated in triplicate with 0.1 nM [^35 S]GTPγS and the cold ligand in a final volume of 0.5 ml for 20 min at 25° C. The incubation buffer contains 20 mM HEPES (pH 7.4), 3 μM GDP, 3 mM MgCl2 and 100 mM NaCl. At the end of the incubation, the incubation medium is filtered through WHATMAN GF/B filters impregnated with water and washed three times with 2 ml of cooled buffer. The radioactivity retained on the filters is determined by liquid scintillation counting. The binding isotherms are analyzed by nonlinear regression using `PRISM` software (GraphPad Software Inc., S. Diego, USA) to determine EC50 and efficacy (Emax) values. The efficacy is expressed as a percentage of the stimulation of the binding of [^35 S]GTPγS induced by dopamine.
For the tests of antagonism, the membranes are preincubated with the antagonist at a fixed concentration of dopamine for 30 min before adding the [^35 S]GTPγS. […]
in which [Antagonist] is the antagonist concentration and EC50 is the EC50 determined in the absence of antagonist (dopamine alone).

D4 receptors = conditions: literature; cited from earlier work

Compound	Kb (human D4.4 receptor)	affinity for the D4 receptors (in words) (D4 receptors)
COc1ccccc1N1CCN(Cc2ccc3c(c2)sc(=O)n3C)CC1 [Example 1, 3-METHYL-6-[(4-(2-METHOXYPHENYL)-1-PIPERAZINYL)METHYL]-BENZOTHIAZOLINONE HYDROCHLORIDE]	2.39 ± 1.1 nM	–
Cn1c(=O)sc2cc(CN3CCN(c4ccccc4F)CC3)ccc21 [Example 3, 3-METHYL-6-[(4-(2-FLUOROPHENYL)-1-PIPERAZINYL)METHYL]-BENZOTHIAZOLINONE]	16.1 ± 5 nM	–
CN1CCN(C2=Nc3cc(Cl)ccc3Nc3ccccc32)CC1 [clozapine]	–	high affinity
NC[C@H](O)c1ccc(O)c(O)c1 [noradrenaline]	–	high affinity
